Some test systems named below: NCI-H23; PC-3; MDA-MB-231; CAKI-1; T47D; HCT-15; A498; UO-31; M14; EKVX; OVCAR-3; RPMI-8226; BT-549; SK-MEL-2; Hs-578T; SF-539; RXF 393; NCI-H460; HOP-92; K562.
What all share (assay): inhibition of tumour cell growth, NCI panel, 48 h

These results are taken from ChEMBL document CHEMBL1201862, “PubChem BioAssay data set” (2004).

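Growth conditions: 96-well plates. Treatment: test compound, 48 hours, 5 concentrations. Analysis: linear interpolation between bracketing concentrations; unreached endpoints set to highest concentration. GI50: concentration for 50% inhibition of growth.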 Calls of active or inactive are those of the source. Rule as the data show it: active = GI50 up to about 1.1 µM and inactive = higher.

On to `NC(Cc1ccc(S(=O)(=O)O)cc1)C(=O)NC(Cc1ccc(S(=O)(=O)O)cc1)C(=O)NC(Cc1ccc(S(=O)(=O)O)cc1)C(=O)NC(Cc1ccc(S(=O)(=O)O)cc1)C(=O)O` (centres undefined), for which the GI50 is > 100 µM (inactive) in the assay on NCI-H23; > 100 µM (inactive) with PC-3; > 100 µM (inactive) with MDA-MB-231; > 100 µM (inactive) in the assay on CAKI-1; > 100 µM (inactive) with T47D; greater than 100 µM with HCT-15. In addition, the GI50 in the assay with A498, in the assay with UO-31, in the assay with M14, in the assay on EKVX, in the assay with OVCAR-3 and in the assay with RPMI-8226 was > 100 µM (inactive) each time. Also, the GI50 in the assay with BT-549, in the assay with SK-MEL-2, in the assay with Hs-578T, in the assay with SF-539, with RXF 393 and in the assay on NCI-H460 was > 100 µM (inactive) throughout.

As to `Cc1ccc2c(c1)C(=O)/C(=C\c1ccc(Cl)cc1)CCS2(=O)=O`, the GI50 with NCI-H23 was 3.28 µM (inactive); in the assay with PC-3, 5.09 µM (inactive); with MDA-MB-231 it was 3.58 µM (inactive); with CAKI-1, 3.07 µM (inactive); in the assay on HOP-92, 3.53 µM (inactive); in the assay on T47D it was 1.41 µM (inactive). Also, the GI50 is 1.97 µM in the assay on HCT-15; 12.4 µM (inactive) in the assay on A498; 1.42 µM (inactive) in the assay with K562; 2.9 µM (inactive) with UO-31; 4.05 µM (inactive) with M14; 11.3 µM (inactive) in the assay on EKVX. Further, the GI50 with OVCAR-3 is 4.24 µM (inactive); in the assay with RPMI-8226, 2.34 µM (inactive); in the assay on BT-549, 3.8 µM (inactive); with SK-MEL-2, 19.4 µM (inactive); in the assay on Hs-578T it was 3.1 µM (inactive); in the assay with SF-539, 2 µM (inactive). For the same compound, in the assay with NCI-H460, the GI50 was 2.13 µM (inactive).

Regarding `O=C1c2ccccc2-c2ccc(/N=[N+](/[O-])c3ccc4c(c3)C(=O)c3ccccc3-4)cc21`, the GI50 in the assay on NCI-H23, with PC-3, in the assay with MDA-MB-231, in the assay on CAKI-1, with HOP-92 and with T47D was > 100 µM (inactive) each time. In addition, the GI50 is greater than 100 µM with HCT-15; > 100 µM (inactive) with A498; > 100 µM (inactive) with K562; > 100 µM (inactive) with UO-31; > 100 µM (inactive) in the assay on M14; > 100 µM (inactive) in the assay with EKVX. The GI50 in the assay on OVCAR-3, with RPMI-8226, with BT-549, with SK-MEL-2, in the assay on Hs-578T and with RXF 393 was > 100 µM (inactive) each time. For the same compound, in the assay on NCI-H460, the GI50 was > 100 µM (inactive).

As for `O=C(c1cccs1)N(C(=S)OCc1ccccn1)c1ccccc1`, the GI50 is 84.9 µM (inactive) in the assay with NCI-H23; 47.8 µM (inactive) in the assay on PC-3; 59.7 µM (inactive) with MDA-MB-231; > 100 µM (inactive) in the assay on CAKI-1; 53.8 µM (inactive) with T47D; 53.2 µM with HCT-15. Moreover, the GI50 with A498 is 75.5 µM (inactive); in the assay with K562, 42 µM (inactive); in the assay with UO-31, 32.6 µM (inactive); in the assay on M14 it was > 100 µM (inactive); in the assay on EKVX it was 14.4 µM (inactive); in the assay with OVCAR-3, 76.9 µM (inactive). Also, the GI50 is 37.4 µM (inactive) with RPMI-8226; 47.3 µM (inactive) in the assay with BT-549; > 100 µM (inactive) with SK-MEL-2; 38.3 µM (inactive) in the assay with Hs-578T; 38.5 µM (inactive) in the assay on SF-539; 31 µM (inactive) with RXF 393. The GI50 with NCI-H460 was 70.3 µM (inactive).

For the compound `CN(C(=O)C12C3C4(C(=O)O)C1(C(=O)N(C)C(C)(C)C)C1C2(C(=O)O)C3(C(=O)N(C)C(C)(C)C)C14C(=O)N(C)C(C)(C)C)C(C)(C)C` (centres undefined), the GI50 with NCI-H23, in the assay on PC-3, with MDA-MB-231, in the assay with CAKI-1, in the assay on HOP-92 and in the assay on T47D was > 100 µM (inactive) throughout. The GI50 with HCT-15 was greater than 100 µM; in the assay with A498 it was > 100 µM (inactive); with K562 it was > 100 µM (inactive); in the assay with UO-31 it was > 100 µM (inactive); with M14, > 100 µM (inactive); in the assay with EKVX, > 100 µM (inactive). The GI50 in the assay on OVCAR-3, with BT-549, in the assay on SK-MEL-2, in the assay on Hs-578T, in the assay with SF-539 and with RXF 393 was > 100 µM (inactive) in each case. Moreover, the GI50 with NCI-H460 was > 100 µM (inactive).

Consider `Cc1ccc(F)c2[nH]c(-c3ccccc3)cc(=O)c12`, for which the GI50 in the assay on NCI-H23 was 9.46 µM (inactive); in the assay on PC-3, 8.81 µM (inactive); in the assay with MDA-MB-231 it was 20.9 µM (inactive); with CAKI-1 it was > 100 µM (inactive); in the assay with T47D, 11.3 µM (inactive); in the assay with HCT-15, 1.64 µM. For the same compound, the GI50 in the assay with A498 was 39.4 µM (inactive); in the assay with K562, 2.23 µM (inactive); with UO-31, 9.23 µM (inactive); in the assay with M14, 3.37 µM (inactive); with EKVX, > 25.2 µM (inactive); with OVCAR-3, 6.28 µM (inactive). In addition, the GI50 was 3.96 µM (inactive) in the assay with RPMI-8226; 7.06 µM (inactive) in the assay on BT-549; 6.93 µM (inactive) in the assay with SK-MEL-2; 14.9 µM (inactive) in the assay with Hs-578T; 4.34 µM (inactive) in the assay with SF-539; 3.58 µM (inactive) in the assay on RXF 393. Besides, the GI50 in the assay with NCI-H460 was 5.32 µM (inactive).

Take `O=C(O)Cc1ccc(Oc2nc3ccccc3nc2-c2ccccc2)cc1`: the GI50 in the assay with NCI-H23 was 63.8 µM (inactive); with PC-3, 56 µM (inactive); in the assay with MDA-MB-231, 58.1 µM (inactive); in the assay on CAKI-1 it was 63.5 µM (inactive); in the assay with T47D, > 100 µM (inactive); in the assay with HCT-15, 65.3 µM. In addition, the GI50 in the assay with A498 was > 100 µM (inactive); with K562, 97.9 µM (inactive); with UO-31 it was 36.6 µM (inactive); with M14, 36.2 µM (inactive); with EKVX, 27.7 µM (inactive); in the assay on OVCAR-3, 32.6 µM (inactive). Moreover, the GI50 with RPMI-8226 was 66.8 µM (inactive); with BT-549 it was 37 µM (inactive); with SK-MEL-2 it was 70 µM (inactive); with Hs-578T it was 41.7 µM (inactive); in the assay on SF-539 it was 60.5 µM (inactive); in the assay on RXF 393, 29.2 µM (inactive). The GI50 with NCI-H460 is 57.8 µM (inactive).

Turning to `NC(=O)N/N=C1\C[C@H]2CCCC[C@H]2C1`, the GI50 with PC-3 is > 100 µM (inactive); in the assay with MDA-MB-231 it was > 100 µM (inactive); in the assay with CAKI-1 it was > 100 µM (inactive); with HOP-92, > 100 µM (inactive); in the assay with T47D it was > 100 µM (inactive); in the assay on HCT-15, greater than 100 µM. In addition, the GI50 in the assay with A498, with K562, with UO-31, in the assay with M14, in the assay on EKVX and in the assay on OVCAR-3 was > 100 µM (inactive) each time. The GI50 is > 100 µM (inactive) in the assay with RPMI-8226; 42.7 µM (inactive) in the assay with BT-549; > 100 µM (inactive) in the assay on SK-MEL-2; > 100 µM (inactive) with Hs-578T; > 100 µM (inactive) in the assay on SF-539; > 100 µM (inactive) with NCI-H460.

In the case of `COc1ccc(N2C(=O)C3c4[nH]c5c(C)cccc5c4C4CCC(c5ccccc5)CC4C3C2=O)cc1` (centres undefined), the GI50 with NCI-H23 is 24.7 µM (inactive); in the assay with PC-3, 12.1 µM (inactive); in the assay with MDA-MB-231, 16.3 µM (inactive); in the assay on CAKI-1, 16.9 µM (inactive); with HOP-92, 15 µM (inactive); in the assay with T47D it was 5.81 µM (inactive). For the same compound, the GI50 with HCT-15 is 11.9 µM; in the assay on A498, 18.2 µM (inactive); in the assay with UO-31 it was 20.9 µM (inactive); in the assay with M14, 11.9 µM (inactive); in the assay with EKVX it was 26.2 µM (inactive); with OVCAR-3, 24.8 µM (inactive). Further, the GI50 is 7.55 µM (inactive) in the assay on RPMI-8226; 24.9 µM (inactive) in the assay with BT-549; 24.2 µM (inactive) in the assay with SK-MEL-2; 12.4 µM (inactive) with Hs-578T; 5.68 µM (inactive) in the assay with NCI-H460.

On to `[N-]=[N+]=Nc1cccc(-c2nnc(Cl)cc2O)c1`, for which the GI50 in the assay on NCI-H23 is > 100 µM (inactive); in the assay with PC-3, > 100 µM (inactive); with MDA-MB-231, > 100 µM (inactive); in the assay with HOP-92, > 100 µM (inactive); with T47D, > 100 µM (inactive); in the assay with HCT-15 it was greater than 100 µM. Further, the GI50 in the assay with A498 is > 100 µM (inactive); in the assay on K562, > 100 µM (inactive); with UO-31, > 10 µM (inactive); in the assay with M14, > 100 µM (inactive); in the assay with EKVX it was > 100 µM (inactive); in the assay on OVCAR-3, > 100 µM (inactive). The GI50 with RPMI-8226, in the assay on BT-549, in the assay on Hs-578T, in the assay on SF-539, in the assay with RXF 393 and with NCI-H460 was > 100 µM (inactive) each time.

With `CC(C)(C)OC(=O)N1C[C@H](CC(=O)OCc2ccccc2)C[C@H]1C(=O)OCC(Cl)(Cl)Cl`, the GI50 in the assay on NCI-H23 is 4.49 µM (inactive); with PC-3, 2.17 µM (inactive); with MDA-MB-231, 11.3 µM (inactive); in the assay with CAKI-1 it was 3.7 µM (inactive); in the assay on HOP-92, 1.79 µM (inactive); in the assay with T47D it was 1.64 µM (inactive). Further, the GI50 was 3.27 µM in the assay on HCT-15; 3.44 µM (inactive) in the assay with A498; 2 µM (inactive) in the assay on K562; 3.94 µM (inactive) with UO-31; 6.46 µM (inactive) with M14; 2.78 µM (inactive) with EKVX. The GI50 with OVCAR-3 is 3.43 µM (inactive); in the assay on BT-549, 8.15 µM (inactive); with SK-MEL-2 it was 6.7 µM (inactive); with Hs-578T, 8.69 µM (inactive); in the assay with SF-539, 14.5 µM (inactive); with RXF 393 it was 6.15 µM (inactive). Further, in the assay on NCI-H460, the GI50 is 11.2 µM (inactive).
